# Tests used:
# [1] = biological target: T1, vitamin D receptor (VDR) (Homo sapiens, UniProt P11473); experiment: Vitamin D-dependent transcriptional activation: growth hormone production in COS-1 cells co-transfected with VDR plasmid and VDRE-GH plasmid; assay type: cell-based; conditions: in words
# T1 sequence (P11473 1-427): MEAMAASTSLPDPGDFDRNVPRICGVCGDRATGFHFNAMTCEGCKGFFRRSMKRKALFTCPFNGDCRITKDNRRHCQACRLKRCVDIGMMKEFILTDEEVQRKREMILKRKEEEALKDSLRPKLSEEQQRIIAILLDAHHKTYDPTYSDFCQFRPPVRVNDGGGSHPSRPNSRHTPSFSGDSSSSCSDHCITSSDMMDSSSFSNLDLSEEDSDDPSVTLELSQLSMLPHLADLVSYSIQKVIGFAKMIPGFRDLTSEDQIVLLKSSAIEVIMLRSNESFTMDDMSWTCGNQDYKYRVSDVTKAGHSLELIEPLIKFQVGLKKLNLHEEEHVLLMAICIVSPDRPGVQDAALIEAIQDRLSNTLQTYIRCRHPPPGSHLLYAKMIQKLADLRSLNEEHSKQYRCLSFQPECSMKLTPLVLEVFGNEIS
# Procedure: The biological activity in vitro of chemically synthesized 1α,24(S)-(OH)2 D2 and 1α,24(R)-(OH)2 D2 was measured using a vitamin D-dependent transcriptional activation model system in which a vitamin D receptor (VDR)-expressing plasmid pSG5-hVDR1/3and a plasmid p(CT4)^4 TKGH containing a Growth Hormone (GH)-gene, under the control of a vitamin D-responsive element (VDRE) were co-transfected into Green monkey kidney, COS-1 cells. DNA's for these two vectors were supplied by Dr. Mark Haussler, Department of Biochemistry, University of Arizona, Tucson, Ariz.
# Tranfected cells were incubated with vitamin D metabolites and growth hormone production was measured.
# [2] = Blood metabolite levels in osteoporotic women administered 1α-OH-D2; assay type: in vivo; conditions: one day after a single 2 μg dose of 1α-OH-D2; human females
# Procedure: An increase in the production of 1α,24(S)-(OH)2 D2 relative to 1α,25-(OH)2 D2 has also been observed by the present inventors in human females who received 1α-OH-D2 as part of an investigation of that drug for the treatment of osteoporosis. Following either a single dose of 2 μg of 1α-OH-D2 or daily doses of 8 μg/day for one week, blood was collected and analyzed for the metabolites 1α,24(S)-(OH)2 D2 and 1α,25-(OH)2 D2. Lipid was extracted from the blood, and the metabolites were purified by HPLC using standard methods and quantified with the radioreceptor assay produced by Incstar (Stillwater, Minn.). One day after a single 2 μg dose, the level of 1α,24(S)-(OH)2 D2 was undetectable with the 1α,25-(OH)2 D2 level being approximately 11 pg/ml. In contrast, one day following the last dose of 8 μg, the level of 1α,24(S)-(OH)2 D2 averaged 9 pg/ml with the 1α,25-(OH)2 D2 level averaging 30 pg/ml.
# [3] = test system: healthy postmenopausal women; experiment: Prophylaxis of postmenopausal bone loss; assay type: in vivo, human; conditions: at or above 1.0 μg/day, 24 to 36 months
# Procedure: A clinical study is conducted with healthy postmenopausal women having ages between 55 and 60 years. The study involves up to 80 patients randomly divided into two treatment groups, and continues for 24 to 36 months. One treatment group receives a constant dosage of 1α,24(S)-dihydroxy vitamin D2 (u.i.d.; a dose level at or above 1.0 μg/day) and the other receives a matching placebo. The study is conducted as indicated in Example 2 above.
# [4] = test system: Human keratinocytes; experiment: Epidermal cell differentiation and proliferation testing; assay type: cell-based; conditions: 0.05 to 5 μg/ml
# Procedure: Human keratinocytes are cultured according to known modifications of the system originally described by Rheinwald and Green (Cell, vol. 6, p. 331 (1975)). The 1α,24(S)-dihydroxy vitamin D2, dissolved in ethanol, is added to cells to yield a variety of concentrations between 0.05 and 5 μg/ml with the ethanol concentration not to exceed 0.5% v/v. Control cultures are supplemented with ethanol at a final concentration of 0.5% v/v.
# Differentiation and proliferation of epidermal cells in culture is examined by:
# 1. quantitation of cornified envelopes;
# 2. quantitation of cell density of cells attached to disks;
# 3. monitoring transglutaminase activity; or
# 4. monitoring DNA synthesis by incorporation of ^3 H-thymidine.
# [5] = test system: HL-60 promyelocytes; experiment: HL-60 cell differentiation assay; assay type: cell-based; conditions: dose-response; acid esterase, NBT reduction, thymidine incorporation
# Procedure: A dose-response study is conducted with 1α,24(S)-(OH)2 D2 in the HL-60 cell differentiation assay as described by DeLuca and Ostrom (DeLuca, H. F. and Ostrem, V. K., Prog. Clin. Biol. Res., vol. 259, pp. 41-55 (1988)). In this study, 1α,25-(OH)2 D3 is used as a positive control and appropriate solvents are used as negative controls. The following variables are evaluated: nonspecific acid esterase activity, nitroblue tetrazolium (NBT) reduction, and thymidine incorporation.
# [6] = test system: human cancer cell lines BCA-1 or ZR-75-1 (breast) and COL-1 (colon); experiment: Antiproliferative activity in human cancer cell lines (thymidine incorporation); assay type: cell-based; conditions: dose-response
# Procedure: Dose-response studies are conducted with 1α,24(S)-(OH)2 D2 in a battery of human cancer cell lines. These cell lines include, but are not limited to, the following: BCA-1 or ZR-75-1 (breast) and COL-1 (colon), as described by Shieh, H. L. et al. Chem. Biol. Interact., vol. 81, pp. 35-55 (1982). In this study, appropriate solvents are used as negative controls.
smiles,measurement,setting,value
"C=C1/C(=C\C=C2/CCC[C@]3(C)[C@@H]([C@H](C)/C=C/[C@@](C)(O)C(C)C)CC[C@@H]23)C[C@@H](O)C[C@@H]1O [1α,24(S)-(OH)2 D2, 1α,24(S)-dihydroxy Vitamin D2]","activity in the transcriptional activation system compared with 1α,24(R)-(OH)2 D2",[1],significantly more activity
same,blood level of metabolite,[2],undetectable
same,"monitored safety parameters, long-term administration",[3],confirm the safety
same,DNA synthesis (3H-thymidine incorporation) vs control cultures,[4],lower DNA synthesis
same,cell density of attached cells vs control cultures,[4],fewer attached cells
same,cornified envelopes vs control cultures,[4],more cornified envelopes
same,transglutaminase activity vs control cultures,[4],higher transglutaminase activity
same,differentiation of HL-60 promyelocytes to monocytes,[5],potent activity in promoting differentiation
same,antiproliferative activity (inhibition of thymidine incorporation),[6],potent (and reversible) antiproliferative activity
